{
  "source": "patent US8962528B2",
  "about": "“Penoxsulam as an herbicide in alfalfa” (Dow AgroSciences, LLC., priority 2011, dated 2015)",
  "key": {"[1]": {"test_system": "alfalfa", "settings": "in vivo", "experimental": "(§1) A field trial (California) was conducted in field-grown alfalfa using standard herbicide small plot research methodology. Plots were 7.5 ft by 20 ft long with 4 replicates per treatment. The alfalfa crop was already established the previous season and was grown using normal cultural practices for fertilization, seeding, watering, and maintenance to ensure good growth of the crop. All treatments in the field trials were applied using a CO2 backpack sprayer calibrated to apply 187 L/ha spray volume. Commercially available product of penoxsulam was mixed in water at appropriate formulated product rates to achieve the desired rates based on a unit area of application (hectare). Treatments were sprayed as a postemergence application to the soil when alfalfa was in the late dormant stage of growth. “Late dormant” growth stage is defined as when the crop is not actively growing during the winter season and just prior to emerging from dormancy and starting new growth for the growing season. Treatments were rated at 26 to 63 days after the application as compared to the untreated control plants, when the alfalfa crop was no longer dormant. Visual crop injury ratings were scored on a scale of 0 to 100 where 0 corresponds to no injury and 100 corresponds to complete control."}, "[2]": {"test_system": "STEME = Stellaria media, chickweed", "assay": "Field trial of weed control in dormant alfalfa", "format": "in vivo", "settings": "for Control % Visual STEME: 45 DAAA, POST, NOV/JAN", "experimental": "as §1"}, "[3]": {"test_system": "POAAN = Poa annua, annual bluegrass", "assay": "Field trial of weed control in dormant alfalfa", "format": "in vivo", "settings": "for Control % Visual POAAN: 45 DAAA, POST, NOV/JAN", "experimental": "as §1"}, "[4]": {"test_system": "CAPBP = Capsella bursa-pastoris, Shepherd's purse", "assay": "Field trial of weed control in dormant alfalfa", "format": "in vivo", "settings": "for Control % Visual CAPBP: 45 DAAA, POST, NOV/JAN", "experimental": "as §1"}, "[5]": {"settings": "35 gr ai/ha + AGRI-DEX COC 2.33 liter/ha"}, "[6]": {"settings": "70 gr ai/ha + AGRI-DEX COC 2.33 liter/ha"}, "[7]": {"settings": "140 gr ai/ha + AGRI-DEX COC 2.33 liter/ha"}, "[8]": {"settings": "45DAAA, all rates, burndown and/or residual activity"}},
  "data": [
    {"smiles": "COc1cnc(OC)n2nc(NS(=O)(=O)c3c(OCC(F)F)cccc3C(F)(F)F)nc12", "note": "[PENOXSULAM]", "values": [
      {"measurement": "% Visual Injury of alfalfa compared to the Untreated", "setting": "[1]", "value": "some slight visual injury"},
      {"measurement": "alfalfa growth (% Visual Regrowth) as compared to the Untreated", "setting": "[1]", "value": "no effect"},
      {"measurement": "alfalfa regrowth as compared to the Untreated", "setting": "[1]", "value": "no significant difference"},
      {"measurement": "Control % Visual STEME", "setting": "[2]; [5]", "value": 100, "unit": "a % Visual"},
      {"measurement": "Control % Visual STEME", "setting": "[2]; [6]", "value": 100, "unit": "a % Visual"},
      {"measurement": "Control % Visual STEME", "setting": "[2]; [7]", "value": 100, "unit": "a % Visual"},
      {"measurement": "control of STEME (chickweed)", "setting": "[2]; [8]", "value": 100, "unit": "%"},
      {"measurement": "Control % Visual POAAN", "setting": "[3]; [5]", "value": 65, "unit": "b % Visual"},
      {"measurement": "Control % Visual POAAN", "setting": "[3]; [6]", "value": 79, "unit": "ab % Visual"},
      {"measurement": "Control % Visual POAAN", "setting": "[3]; [7]", "value": 91, "unit": "a % Visual"},
      {"measurement": "control of grass weed POAAN (annual bluegrass)", "setting": "[3]; 45DAAA, dependent on the rate applied", "value": "significant suppression/partial control"},
      {"measurement": "Control % Visual CAPBP", "setting": "[4]; [5]", "value": 100, "unit": "a % Visual"},
      {"measurement": "Control % Visual CAPBP", "setting": "[4]; [6]", "value": 100, "unit": "a % Visual"},
      {"measurement": "Control % Visual CAPBP", "setting": "[4]; [7]", "value": 100, "unit": "a % Visual"},
      {"measurement": "control of CAPBP (Sheperd's purse)", "setting": "[4]; [8]", "value": 100, "unit": "%"}
    ]}
  ]
}
